Consider eight compounds from paper PMC7076710, “Synthesis, Identification, and Structure–Activity Relationship Analysis of GATA4 and NKX2-5 Protein–Protein Interaction Modulators” (Journal of Medicinal Chemistry, 2019).

Where two headings read alike, the source gives them in different places.

Holding throughout (assay type): cell-based
Series [1] concerns the target T1, GATA4–NKX2-5 transcriptional synergy (Mus musculus, UniProt P42582+Q08369).
T1 construct: expressed in transfected cells; host or cells: COS-1
Put plainly: GATA4–NKX2-5 transcriptional synergy luciferase reporter assay (3xNKE reporter, COS-1 cells). Particulars: COS-1. (In a reporter assay the amount or activity of a reporter protein is the signal.)

In series [2] the target is T2, NKX2-5 transcriptional activity (Mus musculus, UniProt P42582).
T2 construct: expressed in transfected cells; host or cells: COS-1
Put plainly: NKX2-5 luciferase reporter assay (3xNKE reporter, COS-1 cells). To be noted: COS-1; for activity at 3 µM: read-out: NKX.3µM; for activity at 10 µM: read-out: NKX.10µM. As for the experimental part:
(§1) To screen compounds for the GATA4–NKX2-5 interaction, we have developed a luciferase reporter assay based on their property to activate gene transcription synergistically through the NKX2-5 binding site on DNA.[28] In this assay, we transfected mammalian COS-1 cells with protein expression vectors for GATA4 and NKX2-5 proteins together with artificial luciferase reporter vector containing three high affinity binding sites for NKX2-5 (NKE). […] All 257 compounds were tested in two concentrations, 3 and 10 μM. Compounds either inhibited, enhanced, or had no effect on the GATA4–NKX2-5 transcriptional synergy. To investigate the selectivity of the active compounds, we tested their effects on NKX2-5 transcriptional activity by using the same luciferase reporter vector as in transcriptional synergy assay with three NKE sites (Figure 3B). Furthermore, we used GATA luciferase reporter assay to examine if compounds have an effect on GATA4 transcriptional activity. In this assay, we cotransfected the cells with a GATA4 protein expression vector and a reporter vector with tandem GATA4 binding sites (Figure 3C). Previously we have reported that compound 1 inhibited the GATA4–NKX2-5 transcriptional synergy at micromolar concentrations (IC50 = 3 μM).[29]
(§2) The plasmids expressing mouse GATA4 protein, pMT2-GATA4, and empty pMT2 were gifts from D. B. Wilson (Department of Pediatrics, St. Louis Children’s Hospital, St. Louis, MO).[44] The plasmids expressing mouse NKX2-5 protein, pMT2-NKX2-5, have been described earlier.[28] The luciferase reporter plasmid used in GATA4–NKX2-5 transcriptional synergy assay and NKX transcriptional assay, pGL3-3xHA, contains three high affinity binding sites for NKX2-5.[28] The luciferase reporter plasmid used in GATA transcriptional assay, NP-112, contains tandem GATA-sites and minimal promoter of rat brain natriuretic peptide (BNP) gene.[45] The pGL3-BNP luciferase reporter containing −534/+4 bp rat BNP proximal promoter described previously was used in hypertrophy assay.[46]
(§3) The primary screening assay of compounds’ effect on GATA4–NKX2-5 transcriptional synergy and COS-1 cell culturing has been described earlier.[33] […] (Kinnunen et al., unpublished observation). Briefly, COS-1 cells were seeded at 14 000 cells/well in Isoplate-96 microplates (PerkinElmer, Turku, Finland) and grown overnight. The cells were transfected with the luciferase reporter plasmid pGL3-3xHA 100 ng/well and equal amounts of expression plasmids pMT2-GATA4 and pMT2-NKX2-5 total 50 ng/well. To verify the synergistic effect, the cells were transfected with pMT2-GATA4 or pMT2-NKX2-5 25 ng/well, and the total DNA concentration was adjusted to 50 ng/well with empty pMT2 plasmid. In NKX2-5 and GATA4 luciferase reporter assays, the cells were transfected with reporter plasmid pGL3-3xHA or NP-112 (100 ng/well) and expression plasmid pMT2-NKX2-5 or pMT2-GATA4 (25 ng/well). The ratio of DNA/transfection reagent (Fugene 6, Promega) was 1:3 in all assays. The transfections were performed in serum and antibiotics free media for 6 h. The cells were treated with compounds or vehicle (0.1% DMSO) for 24 h, and the luminescence was measured using neolite Reporter Gene Assay System (PerkinElmer, Turku, Finland) and Victor2 plate reader (PerkinElmer, Turku, Finland).
(§4) Raw luciferase data were analyzed in Excel, and clear outliers were removed from triplicates by using the Grubb’s test. Data analysis was performed using R.[49] The luciferase data were first normalized on the basis of the combined mean value of controls. For data visualization and creation of figures, the following R packages were used: ggplot2, cowplot, RColorBrewer, and pheatmap. The heatmaps of the toxicity data were produced with GraphPad Prism 7.00 (GraphPad Software, La Jolla, CA). Statistical significance of luciferase reporter assay data was evaluated by randomized block analysis of variance followed by Dunnett’s post hoc test. […]

In series [3] the target is T3, GATA4 transcriptional activity (Mus musculus, UniProt Q08369).
T3 construct: expressed in transfected cells; host or cells: COS-1
The series is described as follows: GATA4 luciferase reporter assay (tandem GATA-site reporter, COS-1 cells). To be noted: COS-1. As for the experimental part: as §1, §2, §3, §4

The test system of series [4] is COS-1 cells. The series is described as follows: LDH assay (necrosis). From the text:
(§5) To investigate the toxicity as a potential cause of decreased or increased activity in luciferase reporter gene assays, we tested a set of 40 active compounds in the COS-1 cell line used for the luciferase assays. Concentration-dependent toxic effects were investigated using the lactate dehydrogenase (LDH) assay to detect necrosis and the 3-(4,5-dimethylthiazol-2-yl)-2,5-diphenyltetrazolium bromide (MTT) assay as a measure of cell viability. […] For the data analysis, compounds were classified as toxic (Figures 5 and 7) if they induced a >10% decrease in cell viability in the MTT assay at the concentration of 10 μM. The most toxic compounds (35a, 35d, 54, 58, and 63–65) in the MTT assay all contained a phenyl substituent in the southern part ring, while the ortho-nitrophenyl-derivative 39g and the phenyl-substituted thiophene 47t were nontoxic. Higher flexibility in the central parts of the ethers (35a, 35d) and N-acylated amines (58, 64) might contribute to their toxicity, because less rigid compounds are more likely to have affinity to various biological targets. Such interactions can cause toxicity. To confirm and validate the results from MTT assays, we tested three nontoxic (2, 47s, and 72) and three toxic (1, 35a, and 58) compounds in a cell viability assay measuring intracellular ATP content.
(§6) Figure 5 Effects of selected compounds on COS-1 cell viability. (A) Compound-induced necrosis was quantified with the LDH assay after a 24-h compound exposure. The data are presented as cytotoxicity percentage (% of maximal LDH release). (B) Cell viability was analyzed with the MTT assay after a 24-h compound exposure. (A,B) The data are means from 2–3 independent experiments with 3 replicate wells in each and are presented as % of control (vehicle-treated cells). The compounds have been grouped on the basis of the structure of the central part: a, amide; b, ether; c, N-acylated amine; d, amine; and e, imine. (C) The effects of selected compounds on cell viability as determined by ATP content after a 24-h compound exposure. The data are mean + SEM from three independent experiments and are presented as % of vehicle-treated cells.
(§7) For toxicity screening, COS-1 cells were cultured in DMEM (Sigma-Aldrich, Steinheim, Germany) supplemented with 10% fetal bovine serum, 100 U/mL penicillin, and 100 μg/mL streptomycin (all from Gibco, Thermo Scientific) at 37 °C with 5% CO2. The cells were plated on 96-well plates at 10 000 cells/well and exposed to test compounds at a concentration range of 1–30 μM on the following day. After a 24-h compound treatment, lactate dehydrogenase (LDH) and 3-(4,5-dimethylthiazol-2-yl)-2,5-diphenyltetrazolium bromide (MTT) assays were carried out as described previously.[48] Briefly, LDH activity was determined from 50 μL samples of cell culture medium, to which 50 μL of substrate solution [1.3 mM β-nicotinamide-adenine dinucleotide, 660 μM iodonitrotetrazolium, 54 mM L(+)-lactic acid, and 280 μM phenazine methosulfate in 0.2 M Tris-HCl, pH 8.2, all from Sigma-Aldrich] was added, and the plate was incubated for 30 min at room temperature. The reaction was stopped with acetic acid (final concentration 333 mM), and absorbance was measured at 490 nm. The absorbance values of the samples were normalized to maximal LDH release and spontaneous LDH release determined on the same plate. Mitochondrial metabolic activity was quantified by incubating the cells with 0.5 mg/mL MTT (from Sigma-Aldrich) for 2 h at 37 °C with 5% CO2, whereafter culture medium was removed and formazan crystals were dissolved in DMSO. The absorbance was measured at 550 nm, and absorbance at 650 nm was subtracted as background.

The subject of series [5] is COS-1 cells. Put plainly: MTT assay (cell viability). Particulars: cell viability.
Text: as §5, §6, §7
A general note: Tetrazolium dyes change colour on reduction, which living cells bring about.

[6] abbreviates: 3 µM, luciferase reporter activity relative to control.
[7] abbreviates: 3 µM, luciferase reporter activity, % of control.
Setting [8] is: 10 µM, luciferase reporter activity, % of control.
Where [9] appears, read: compound 3 µM, luciferase reporter activity, spread in separate STDEV column.
Setting [10] is: compound 10 µM, luciferase reporter activity, spread in separate STDEV column.

T1 sequence (Q08369 whole entry): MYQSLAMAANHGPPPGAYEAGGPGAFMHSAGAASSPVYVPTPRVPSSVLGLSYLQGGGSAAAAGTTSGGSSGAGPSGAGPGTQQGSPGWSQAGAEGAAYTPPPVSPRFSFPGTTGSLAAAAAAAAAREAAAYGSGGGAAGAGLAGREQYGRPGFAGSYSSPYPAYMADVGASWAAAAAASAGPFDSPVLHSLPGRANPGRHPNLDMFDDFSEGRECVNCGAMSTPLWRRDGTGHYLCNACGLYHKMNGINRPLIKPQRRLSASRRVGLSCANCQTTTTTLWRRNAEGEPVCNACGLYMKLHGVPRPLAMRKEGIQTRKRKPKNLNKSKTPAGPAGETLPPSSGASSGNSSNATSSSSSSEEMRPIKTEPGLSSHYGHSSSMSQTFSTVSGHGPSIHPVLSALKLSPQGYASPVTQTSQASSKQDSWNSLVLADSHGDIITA
T1 sequence (P42582 whole entry): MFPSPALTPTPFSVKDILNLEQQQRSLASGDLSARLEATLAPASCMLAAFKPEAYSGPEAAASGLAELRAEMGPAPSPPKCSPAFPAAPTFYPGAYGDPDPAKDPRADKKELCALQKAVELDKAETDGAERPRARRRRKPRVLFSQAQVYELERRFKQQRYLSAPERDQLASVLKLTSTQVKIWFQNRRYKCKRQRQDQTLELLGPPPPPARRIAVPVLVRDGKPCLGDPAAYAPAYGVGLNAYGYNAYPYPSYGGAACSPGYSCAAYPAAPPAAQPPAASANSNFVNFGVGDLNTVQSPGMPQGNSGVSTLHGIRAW
T3 sequence (Q08369 whole entry): as the sequence (Q08369 whole entry) above
T2 sequence (P42582 whole entry): as the sequence (P42582 whole entry) above

For `CCC(OC)c1ccc(OCc2c(-c3ccccc3)noc2C)cc1` (racemic) [Compound 34e, (rac)-4-[[4-(1-Methoxypropyl)phenoxy]methyl]-5-methyl-3-phenylisoxazole], the activity at 3 µM in series [1] (setting [6]) came out at 79.7%. Moreover, the activity at 3 µM in series [2] (setting [6]) was 104%. Besides, the activity at 3 µM in series [3] (setting [6]) turned out to be 101%. In the series on COS-1 cells [4], this compound displayed an LDH.1µM of 1.31, an LDH.3µM of -0.22, an LDH.10µM of -0.78 and an LDH.30µM of 0.55. Further, in the series with COS-1 cells [5], the MTT.1µM amounted to 102.33, the MTT.3µM is listed as 95.44, the MTT.10µM turned out to be 86.07 and the MTT.30µM came out at 79.5.
Take `CCN(CC)c1ccc(NC(=O)c2c(C)noc2-c2cc(C)on2)cc1` [Compound 3]: the activity at 3 µM in series [1] (setting [6]) was determined as 75.5%. Further, the activity at 3 µM in series [2] (setting [6]) amounted to 106%. Moreover, the activity at 3 µM in series [3] (setting [6]) came out at 96.7%. The activity at 10 µM in series [3] (10 µM, luciferase reporter activity relative to control) came out at 102%. Further, in the series with COS-1 cells [4], the LDH.1µM is 0.35, the LDH.3µM is -0.67, the LDH.10µM is -1.59 and the LDH.30µM is on record as -1.83. In the series on COS-1 cells [5], this compound had an MTT.1µM of 105.34, an MTT.3µM of 105.48, an MTT.10µM of 100.7 and an MTT.30µM of 92.68.
In the case of `CCN(CC)c1ccc(NC(=O)c2snnc2-c2ccccc2)cc1` [Compound 47n], in series [2] (setting [6]), the activity at 3 µM is 71.1%. In series [3] (setting [6]), the activity at 3 µM came out at 92.4%. In the series with COS-1 cells [4], this compound had an LDH.1µM of 1.44, an LDH.3µM of 1.32, an LDH.10µM of 0.75 and an LDH.30µM of 1.71. In the series on COS-1 cells [5], this compound gave an MTT.1µM of 104.04, an MTT.3µM of 91.5, an MTT.10µM of 90.69 and an MTT.30µM of 79.72.
As for `Cc1onc(-c2ccccc2)c1COCc1ccc2ccccc2c1` [SI48], the activity at 3 µM in series [1] (setting [7]) amounted to 104%; in series [2] (setting [7]) it was 103%; in series [3] (setting [7]), 96.5%. The figures for the activity at 10 µM in series [1] (setting [8]), in series [2] (setting [8]) and in series [3] (setting [8]) were 90.6%, 95.1% and 110%, respectively.
Regarding `COc1ccc(-c2cc(NCc3ccc(N(C)C)cc3)n[nH]2)cc1` [SI92], the values for the activity at 3 µM in series [1] (setting [9]), in series [2] (setting [9]) and in series [3] (setting [9]) were 76.3%, 84% and 74.4%, respectively. For the same compound, the activity at 10 µM in series [1] (setting [10]) was determined as 85.4%; in series [2] (setting [10]) it was 78.3%; in series [3] (setting [10]) it was 72.4%.
As for `CN(C)c1ccc(CNc2cc(-c3ccccc3)nn2-c2ccccc2)cc1` [SI94], the activity at 3 µM in series [1] (setting [9]) was found to be 69%; in series [2] (setting [9]) it was 95.3%; in series [3] (setting [9]), 96.8%. Further, the activity at 10 µM in series [1] (setting [10]) came out at 72.5%; in series [2] (setting [10]), 79%; in series [3] (setting [10]), 85%.
For `Cc1onc(-c2ccccc2)c1N=Cc1ccc(N(C)C)cc1` [SI108], the activity at 3 µM amounted to 69.3% in series [1] (setting [7]), 99.3% in series [2] (setting [7]) and 109% in series [3] (setting [7]). In addition, the activity at 10 µM worked out at 109% in series [1] (setting [8]), 103% in series [2] (setting [8]) and 97.6% in series [3] (setting [8]).
As to `COc1cc(C(=O)Nc2cc(-c3ccncc3)n[nH]2)ccc1C` [SI123], the activity at 3 µM in series [1] (GATA4-NKX2-5 transcriptional synergy luciferase reporter assay, compound at 3 µM) came out at 93.2%; in series [2] (NKX2-5 luciferase reporter assay, compound at 3 µM), 106%; in series [3] (GATA4 luciferase reporter assay, compound at 3 µM), 105%. Besides, the activity at 10 µM in series [1] (GATA4-NKX2-5 transcriptional synergy luciferase reporter assay, compound at 10 µM) was 72.3%; in series [2] (NKX2-5 luciferase reporter assay, compound at 10 µM) it was 90.4%; in series [3] (GATA4 luciferase reporter assay, compound at 10 µM), 80.9%.
